Type in all cases: biochemical
One assay addresses T1, TrkA (Homo sapiens, UniProt P04629).
T1 construct: purchased Invitrogen
The assay is described as follows: HTRF KinEASE kinase assay, recombinant Human TRK enzyme, TrkA (NTRK1). The conditions noted are these: NTRK1 4 nM, read-out: TrkA Enz. As for the experimental part:
(§1) A suitable assay for determining the Trk inhibition activity of a compound is detailed herein below.
(§2) To determine the IC50 of small molecule compounds for the Human TRK receptors, HTRF® KinEASE™ kinase kits from Cisbio were used. Assays were carried out in low volume, black 384-well plates.
(§3) Recombinant Human TRK enzymes (Invitrogen) were incubated in the presence or absence of the compound (11-point dose response with FAC as 10 μM) for 30 minutes at 23° C. Kinase reaction was started by addition of ATP to a mixture containing the enzyme (NTRK1-4 nM, NTRK2-1 nM, NTRK3-10 nM) and substrate (1 μM). Kinase reaction was allowed to carry on for 10 to 45 minutes at 23° C. after which it was stopped by addition of the detection mix (supplied by vendor) containing EDTA, TK-Ab-labelled with Eu^3+-cryptate (1:200 dilutions) and Streptavidin-XL665 (250 nM). Assay plates were incubated in this detection mix for 60 minutes at 23° C. The resulting TR-FRET signal, calculated as the fluorescence ratio at 665/620 nm, was read on an Envision and was proportional to the level of phosphorylation of the peptide in the presence or absence of the compound. The uniformity of the plates were assured with Z′ value [1−{3*(SDHPE+SDZPE)/(ZPE−HPE)}]. The percent (%) effect i.e. Inhibition of compound was calculated in comparison to the signal in the positive (HPE) and negative control (ZPE) wells within each assay plate. The endpoint value % Inhibition for the Standard compound was evaluated in each experiment as a quality control measure. IC50 was determined by plotting compound inhibition at respective dose in Graphpad prism5 using four parameter logistic curve fit.
Background: TR-FRET usually uses a lanthanide donor and a delayed reading to cut background.

A further assay deals with T2, TrkC (Homo sapiens, UniProt Q16288).
T2 construct: purchased Invitrogen
Nature of the assay: HTRF KinEASE kinase assay, recombinant Human TRK enzyme, TrkC (NTRK3). The settings on record: NTRK3 10 nM, read-out: TrkC Enz. As for the experimental part:
as §1, §2, §3

A further assay addresses T3, TrkB (Homo sapiens, UniProt Q16620).
T3 construct: purchased Invitrogen
Nature of the assay: HTRF KinEASE kinase assay, recombinant Human TRK enzyme, TrkB (NTRK2). The conditions noted are these: NTRK2 1 nM, read-out: TrkB Enz. As for the experimental part: as §1, §2, §3

T2 sequence (Q16288 32-839): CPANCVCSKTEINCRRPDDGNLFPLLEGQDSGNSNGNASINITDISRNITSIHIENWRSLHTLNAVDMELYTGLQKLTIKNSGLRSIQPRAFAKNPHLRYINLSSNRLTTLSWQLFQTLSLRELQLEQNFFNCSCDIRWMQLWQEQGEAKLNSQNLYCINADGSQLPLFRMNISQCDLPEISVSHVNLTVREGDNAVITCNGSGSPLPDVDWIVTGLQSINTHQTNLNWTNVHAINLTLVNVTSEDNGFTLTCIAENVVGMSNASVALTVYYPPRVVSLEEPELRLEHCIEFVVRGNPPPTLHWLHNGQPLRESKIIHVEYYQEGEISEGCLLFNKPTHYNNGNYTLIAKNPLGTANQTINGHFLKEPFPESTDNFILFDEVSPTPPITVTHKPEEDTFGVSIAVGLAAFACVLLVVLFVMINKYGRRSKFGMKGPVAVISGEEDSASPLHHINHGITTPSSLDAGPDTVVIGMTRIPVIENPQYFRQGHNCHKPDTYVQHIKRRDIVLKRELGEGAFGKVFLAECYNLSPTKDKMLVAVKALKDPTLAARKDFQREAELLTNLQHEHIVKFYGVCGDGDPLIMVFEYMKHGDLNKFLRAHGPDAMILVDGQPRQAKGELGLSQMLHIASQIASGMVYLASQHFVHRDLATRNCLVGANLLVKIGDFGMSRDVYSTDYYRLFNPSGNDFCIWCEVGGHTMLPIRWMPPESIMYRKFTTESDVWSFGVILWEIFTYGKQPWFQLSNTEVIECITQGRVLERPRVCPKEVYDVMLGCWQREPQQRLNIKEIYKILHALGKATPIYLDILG
T1 sequence (P04629 33-796): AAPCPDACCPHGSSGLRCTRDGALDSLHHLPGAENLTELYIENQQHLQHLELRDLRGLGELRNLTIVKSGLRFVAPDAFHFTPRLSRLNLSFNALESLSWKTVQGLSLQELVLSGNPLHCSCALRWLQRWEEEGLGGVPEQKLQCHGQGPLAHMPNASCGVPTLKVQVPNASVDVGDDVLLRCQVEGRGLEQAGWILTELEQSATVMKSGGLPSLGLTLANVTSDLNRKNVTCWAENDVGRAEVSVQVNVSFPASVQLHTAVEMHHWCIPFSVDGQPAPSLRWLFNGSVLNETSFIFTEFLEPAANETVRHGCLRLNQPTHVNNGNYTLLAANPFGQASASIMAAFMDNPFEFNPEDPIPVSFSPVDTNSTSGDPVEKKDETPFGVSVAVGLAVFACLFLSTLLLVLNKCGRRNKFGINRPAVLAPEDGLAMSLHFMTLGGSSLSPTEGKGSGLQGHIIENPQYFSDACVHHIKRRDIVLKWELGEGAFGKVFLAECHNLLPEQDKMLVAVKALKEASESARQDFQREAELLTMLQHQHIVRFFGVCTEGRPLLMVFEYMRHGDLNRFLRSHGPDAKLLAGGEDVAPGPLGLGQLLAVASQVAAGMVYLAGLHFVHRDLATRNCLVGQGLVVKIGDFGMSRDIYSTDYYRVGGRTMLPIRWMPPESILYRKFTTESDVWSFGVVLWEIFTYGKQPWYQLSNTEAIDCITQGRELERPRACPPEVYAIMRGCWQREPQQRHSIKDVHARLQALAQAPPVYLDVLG
T3 sequence (Q16620 32-822): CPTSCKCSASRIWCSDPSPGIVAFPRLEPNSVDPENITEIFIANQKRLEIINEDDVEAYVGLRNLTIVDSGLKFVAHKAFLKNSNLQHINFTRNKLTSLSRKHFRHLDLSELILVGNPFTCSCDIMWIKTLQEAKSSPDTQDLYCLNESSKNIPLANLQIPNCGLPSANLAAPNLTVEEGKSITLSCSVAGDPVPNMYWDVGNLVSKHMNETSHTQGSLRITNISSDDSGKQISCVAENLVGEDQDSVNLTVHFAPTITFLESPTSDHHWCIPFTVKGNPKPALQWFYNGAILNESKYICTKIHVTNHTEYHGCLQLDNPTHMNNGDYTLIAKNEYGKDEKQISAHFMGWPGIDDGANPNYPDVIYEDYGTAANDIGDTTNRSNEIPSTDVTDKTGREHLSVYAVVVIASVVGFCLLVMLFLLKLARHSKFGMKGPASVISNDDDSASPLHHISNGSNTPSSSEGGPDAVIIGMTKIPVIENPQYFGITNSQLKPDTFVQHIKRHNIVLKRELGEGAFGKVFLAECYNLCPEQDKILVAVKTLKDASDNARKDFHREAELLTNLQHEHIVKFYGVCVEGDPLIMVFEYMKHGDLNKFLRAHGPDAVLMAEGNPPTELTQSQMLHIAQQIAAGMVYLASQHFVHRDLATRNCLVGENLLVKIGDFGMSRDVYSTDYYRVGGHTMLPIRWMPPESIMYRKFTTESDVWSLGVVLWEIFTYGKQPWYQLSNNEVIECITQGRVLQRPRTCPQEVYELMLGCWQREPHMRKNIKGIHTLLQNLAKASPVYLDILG

Regarding `CSc1cc(F)cc([C@H]2C[C@H](F)CN2c2ccc3ncc(C(=O)N[C@H]4CCN(Cc5cccc(OC(C)=O)c5)C4)n3n2)c1` [Example 28, 3-{[(3S)-3-{6-[(2R,4S)-4-fluoro-2-[3-fluoro-5-(methylsulfanyl)phenyl]pyrrolidin-1-yl]imidazo[1,2-b]pyridazine-3-amido}pyrrolidin-1-yl]methyl}phenyl Acetate], the values for the IC50 at TrkA, at TrkC and at TrkB were 4.63 nM, 4.88 nM and 5.67 nM, respectively.

Regarding `CSc1ccc(F)cc1[C@H]1C[C@H](F)CN1c1ccc2ncc(C(=O)N[C@H]3CCN(Cc4ccc(F)c(O)c4)C3)n2n1` [Example 11, 6-[(2R,4S)-4-fluoro-2-[5-fluoro-2-(methylsulfanyl)phenyl]pyrrolidin-1-yl]-N-[(3S)-1-[(4-fluoro-3-hydroxyphenyl)methyl]pyrrolidin-3-yl]imidazo[1,2-b]pyridazine-3-carboxamide], the figures for the IC50 at TrkA, on TrkC and on TrkB were 1.57 nM, 2.46 nM and 2.27 nM, respectively.

Regarding `CSc1ccc(F)cc1[C@H]1CCCN1c1ccc2ncc(C(=O)NC3CN(Cc4ccc(F)c(O)c4)C3)n2n1` [Example 1, 6-[(2R)-2-[5-fluoro-2-(methylsulfanyl)phenyl]pyrrolidin-1-yl]-N-{1-[(4-fluoro-3-hydroxyphenyl)methyl]azetidin-3-yl}imidazo[1,2-b]pyridazine-3-carboxamide], the figures for the IC50 on TrkA, at TrkC and at TrkB were 1.77 nM, 2.81 nM and 2.06 nM, respectively.

In the case of `COC(=O)c1cccc(CN2CC[C@H](NC(=O)c3cnc4ccc(N5C[C@@H](F)C[C@@H]5c5cc(F)cc(SC)c5)nn34)C2)c1` [Example 16, Methyl 3-{[(3S)-3-{6-[(2R,4S)-4-fluoro-2-[3-fluoro-5-(methylsulfanyl)phenyl]pyrrolidin-1-yl]imidazo[1,2-b]pyridazine-3-amido}pyrrolidin-1-yl]methyl}benzoate], the IC50 at TrkA turned out to be 1.73 nM; at TrkC, 3.28 nM; at TrkB, 4.54 nM.

Consider `CSc1cc(F)cc([C@H]2C[C@H](F)CN2c2ccc3ncc(C(=O)N[C@@H]4COCCN(Cc5ccc(F)c(O)c5)C4)n3n2)c1` (single isomer, unassigned) [Example 24], for which the IC50 amounted to 6.9 nM at TrkA, 17.3 nM at TrkC and 23.6 nM at TrkB.

Regarding `CSc1ccc(F)cc1[C@H]1C[C@H](F)CN1c1ccc2ncc(C(=O)NCc3ccc(F)c(O)c3)n2n1` [Example 14, 6-[(2R,4S)-4-fluoro-2-[5-fluoro-2-(methylsulfanyl)phenyl]pyrrolidin-1-yl]-N-[(4-fluoro-3-hydroxyphenyl)methyl]imidazo[1,2-b]pyridazine-3-carboxamide], the IC50 on TrkA was determined as 0.95 nM; at TrkC, 1.47 nM; at TrkB it was 0.57 nM.

With `CSc1cc(F)cc([C@H]2C[C@H](F)CN2c2ccc3ncc(C(=O)NC4CCN(Cc5ccc(F)c(O)c5)CC4)n3n2)c1` [Example 21, 6-[(2R,4S)-4-fluoro-2-[3-fluoro-5-(methylsulfanyl)phenyl]pyrrolidin-1-yl]-N-{1-[(4-fluoro-3-hydroxyphenyl)methyl]piperidin-4-yl}imidazo[1,2-b]pyridazine-3-carboxamide], the figures for the IC50 on TrkA, on TrkC and on TrkB were 1.48 nM, 1.97 nM and 1.5 nM, respectively.

For `CO[C@H]1CN(Cc2ccc(F)c(O)c2)C[C@@H]1NC(=O)c1cnc2ccc(N3C[C@@H](F)C[C@@H]3c3cc(F)cc(SC)c3)nn12` [Example 23, 6-[(2R,4S)-4-fluoro-2-[3-fluoro-5-(methylsulfanyl)phenyl]pyrrolidin-1-yl]-N-[(3S,4S)-1-[(4-fluoro-3-hydroxyphenyl)methyl]-4-methoxypyrrolidin-3-yl]imidazo[1,2-b]pyridazine-3-carboxamide], the IC50 on TrkA is 2.37 nM; on TrkC, 6.85 nM; at TrkB, 10.3 nM.

Values taken from patent US20210253572A1, “IMIDAZO[1,2-B]PYRIDAZINES AS TRK INHIBITORS” (BenevolentAl Bio Limited, priority 2018, published 2021).
